This note sets out measurements from US5436273A, “Psychoactive propargylamine derivatives used in the treatment of anxiety, psychotic states or aggression” (Lowchol Scientific, Inc., priority 1993, dated 1995).

In data set [1] the test system is isolation induced aggressive behavior in mice. The data set is described as follows: Inhibition of isolation induced fighting behavior in mice. The format is in vivo, CD #1 mice. The conditions noted are these: i.p. The procedure:
1. Inhibition of Isolation Induced Fighting Behavior in Mice
After this period of confinement, the animals usually develop a marked intraspecific aggressive behavior when they are placed in the same cage.
The compound to be studied is administered i.p. to the selected groups (N=8 pairs/dose×5 doses) and the aggressive behavior is tested again 30 minutes later. […] A one week washout period is allowed between treatments.

Data set [2] deals with exploratory behavior in rats. Description: Inhibition of exploratory behavior in rats (hole poking). The format is in vivo, Sprague-Dawley rats. The conditions noted are these: rats. How it is done:
8. Inhibition of Exploratory Behavior in Rats (Hole Poking).
This test is done with Sprague-Dawley male rats of about 300 g. Activity is evaluated with a […] XYZ activity cage connected to a […] […] DCM-4. A perforated plate (16 holes of 2-5 cm diameter) is placed in the enclosure and on the activity case to register vertical activity. The number of times the rat placed his snout into the holes during a 10 minute period is recorded. The test was started 30 minutes after the interperitoneal injection of the compound to be studied.
The results which are reported in Table 8 are expressed in terms of the dose required to diminish by 50% the exploratory behavior, with reference to animals injected with the carrier only. Diazepam and buspirone are used as standards.

Data set [3] relates to motor coordination (rotarod) in mice. Conditions: mouse, in vivo.
A further data set is described as follows: in vivo. The conditions noted are these: mouse, ip.

Turning to `C#CC(C)N` (stereo not drawn) [Compound 3, 2-Amino-3-butyne], the ED50 in data set [1] (Mus musculus, ip, 0.5 h, read-out: ED50 (dose that suppressed aggressive behavior in 50% of the animals), 30 minutes after administration, probit analysis) was 8 mg/kg; in data set [2] (Rattus norvegicus, ip, 0.5 h, i.p., 30 minutes, read-out: dose required to diminish by 50% the exploratory behavior), 4.6 ± 2.6 mg/kg. Besides, the “inhibition of aggressive behavior (in words)” value in data set [1] (mice) is on record as “particularly potent inhibitors”. In data set [2], the “inhibition of exploratory behavior (in words)” value was “more potent, in this respect, than diazepam but they rapidly lose their ability to produce this effect after the first administration”. Further, the “neurotoxicity / motor activity (in words)” value in data set [3] was “much less neurotoxic than buspirone (rot TD50 =135 mg/kg p.o.) and diazepam”. The compound also displayed a TD50 at 0.5 h in the data set “in vivo” of 720 mg/kg.
